Reference: ChEMBL document CHEMBL2007661, “Compounds: GSK PKIS; Assays: UNC Frye lab” (2012)
Values joined by “and” are separate entries in the source; they are usually repeats but may differ in a detail not shown here. Equal entries are not always repeated.

Columns and labels:
[1] = target: T1, Inhibitor of nuclear factor kappa-B kinase subunit epsilon (Homo sapiens) (UniProt Q14164); conditions: at 1 µM
T1 sequence (whole entry): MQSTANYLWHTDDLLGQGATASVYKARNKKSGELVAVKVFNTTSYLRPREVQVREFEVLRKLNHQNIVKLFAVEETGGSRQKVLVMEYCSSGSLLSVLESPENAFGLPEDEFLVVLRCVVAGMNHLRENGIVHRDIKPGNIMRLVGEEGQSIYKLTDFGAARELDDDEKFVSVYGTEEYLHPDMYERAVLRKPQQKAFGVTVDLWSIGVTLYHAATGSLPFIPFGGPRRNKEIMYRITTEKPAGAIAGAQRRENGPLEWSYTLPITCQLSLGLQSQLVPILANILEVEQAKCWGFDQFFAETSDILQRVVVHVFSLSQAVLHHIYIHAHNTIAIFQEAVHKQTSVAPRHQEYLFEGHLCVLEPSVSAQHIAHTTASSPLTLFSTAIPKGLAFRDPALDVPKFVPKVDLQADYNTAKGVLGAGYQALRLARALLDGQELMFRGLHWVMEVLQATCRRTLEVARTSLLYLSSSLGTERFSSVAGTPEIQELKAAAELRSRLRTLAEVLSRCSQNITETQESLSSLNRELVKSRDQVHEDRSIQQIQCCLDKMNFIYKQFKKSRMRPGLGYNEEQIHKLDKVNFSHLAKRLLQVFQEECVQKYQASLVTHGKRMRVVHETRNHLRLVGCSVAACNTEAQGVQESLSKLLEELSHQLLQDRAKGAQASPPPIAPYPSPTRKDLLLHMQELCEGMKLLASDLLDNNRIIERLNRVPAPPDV

[2] = target: T2, Tyrosine-protein kinase Mer (Homo sapiens) (UniProt Q12866); conditions: at 10 µM
T2 sequence (whole entry): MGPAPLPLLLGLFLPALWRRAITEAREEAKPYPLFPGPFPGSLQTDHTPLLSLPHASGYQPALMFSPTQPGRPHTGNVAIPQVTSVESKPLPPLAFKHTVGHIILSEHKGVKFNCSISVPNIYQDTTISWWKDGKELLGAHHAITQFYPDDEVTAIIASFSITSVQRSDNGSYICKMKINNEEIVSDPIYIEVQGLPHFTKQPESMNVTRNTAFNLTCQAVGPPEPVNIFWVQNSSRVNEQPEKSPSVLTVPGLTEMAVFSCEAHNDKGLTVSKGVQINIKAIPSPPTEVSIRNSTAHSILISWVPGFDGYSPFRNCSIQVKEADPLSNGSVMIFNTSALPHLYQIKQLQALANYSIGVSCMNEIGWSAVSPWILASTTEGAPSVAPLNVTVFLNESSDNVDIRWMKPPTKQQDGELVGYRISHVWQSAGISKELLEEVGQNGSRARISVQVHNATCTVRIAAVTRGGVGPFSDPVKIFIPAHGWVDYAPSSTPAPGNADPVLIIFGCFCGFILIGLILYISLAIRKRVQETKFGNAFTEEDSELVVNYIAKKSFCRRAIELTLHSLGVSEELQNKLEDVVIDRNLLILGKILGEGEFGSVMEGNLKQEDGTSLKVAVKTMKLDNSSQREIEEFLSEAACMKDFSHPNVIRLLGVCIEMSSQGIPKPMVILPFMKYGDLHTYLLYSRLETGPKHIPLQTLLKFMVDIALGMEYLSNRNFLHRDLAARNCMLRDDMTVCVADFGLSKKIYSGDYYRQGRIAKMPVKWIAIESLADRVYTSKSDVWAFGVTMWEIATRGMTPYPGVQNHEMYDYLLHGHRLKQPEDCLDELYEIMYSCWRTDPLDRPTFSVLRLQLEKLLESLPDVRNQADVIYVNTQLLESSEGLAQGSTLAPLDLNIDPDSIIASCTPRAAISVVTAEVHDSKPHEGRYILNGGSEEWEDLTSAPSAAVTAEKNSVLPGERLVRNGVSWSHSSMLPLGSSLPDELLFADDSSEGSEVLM

Row | Structure (SMILES) | inhibition [1] | inhibition [2] [%]
1 | CCCN1CCCC(c2ccc(Nc3nc(Nc4cc(F)ccc4C(N)=O)c4cc[nH]c4n3)c(OC)c2)C1 (stereo not given) | 11% and 9% | 5
2 | CN(C)c1ccc2c(c1)/C(=C/Nc1ccc(S(N)(=O)=O)cc1)C(=O)N2 | 37% and 36% | 2
3 | CCOc1ccc2c(-c3ccnc(Nc4cccc(C(F)(F)F)c4)n3)cnn2n1 | 45% | -2
4 | COc1ccc2ncnc(Nc3ccc(OCc4ccccc4)cc3)c2c1 | 1% | -4
5 | Cc1ccc(Nc2ccnc(Nc3cccc(C(N)=O)c3)n2)cc1O | 26% and 27% | 93
6 | CS(=O)(=O)CCNCc1cc(-c2cc3c(Nc4ccc(OCc5cccc(F)c5)c(Cl)c4)ncnc3s2)cs1 | 0% and 2% | -5
7 | O=C(O[C@H]1CN[C@H](C#Cc2cc3ncnc(Nc4ccc5c(ccn5Cc5cc(F)ccc5F)c4)c3s2)C1)N1CCOCC1 | 1% and -4% | 100
8 | CS(=O)(=O)Nc1ccc(-c2ccc3c(NC(=O)C4CC4)n[nH]c3c2)cc1 | 3% and 2% | 1
9 | CN(C)c1cc2c(Nc3ccc4nc(Cc5ccccc5)[nH]c4c3)ncnc2cn1 | 0% and 6% | 2

The next lines start with the values.

Row | inhibition [1] | inhibition [2] [%] | Structure (SMILES)
10 | 16% and 15% | 99 | O=C1NC(=O)C(c2cccc(Cl)c2)=C1Nc1ccc(O)c(Cl)c1
11 | 1% and -2% | 6 | Cc1ccc(C(=O)NC2CC2)cc1-c1ccc2[nH]ncc2c1
12 | 1% and 2% | 0 | COc1ccc2cc(-c3c(-c4ccncc4)nc(-c4ccc(S(C)(=O)=O)cc4C)n3C)ccc2c1
13 | 10% and 11% | 51 | COc1cc2ncn(-c3cc(OCCc4ccccc4)c(C(N)=O)s3)c2cc1OC
14 | 0% and -3% | -5 | Cc1ccc2c(-c3ccnc(Nc4ccc5c(c4)OCCO5)n3)c(-c3ccc(C(F)(F)F)cc3)nn2n1
15 | 2% and 4% | -1 | N#Cc1ccc(Oc2nccc(-c3c(-c4ccc(F)cc4)ncn3C3CCNCC3)n2)cc1
16 | 5% and 6% | -2 | C/C(Nc1ccc(S(N)(=O)=O)cc1)=C1/C(=O)Nc2ccccc21
17 | 99% and 98% | -9 | CCn1c(-c2nonc2N)nc2c(C#CC(C)(C)O)nc(O[C@@H](CN)c3ccccc3)cc21
18 | -1% | 1 | COc1cccc(COc2cc(-n3cnc4ccccc43)sc2C(N)=O)c1
19 | -1% and 0% | 84 | CS(=O)(=O)CCNCc1coc(-c2ccc3ncnc(Nc4ccc(OCc5ccccc5)cc4)c3c2)c1
20 | 1% | 24 | N#Cc1ccc2c(-c3ccnc(NC4CC4)n3)c(-c3ccc(F)cc3)nn2c1
